Results reported in patent US6596474B1, “Prevention and treatment of amyloid-associated disorders” (Scios Inc., priority 1999, dated 2003).

Legend:
microglia = experiment: cAMP pathway agents as co-activators with Aβ of microglia; format: cell-based
Description: Two of the four PGE2 isoforms, EP2 and EP4, are coupled to Gs and elevate cAMP levels upon activation. EP3 is coupled to Gi and inhibits cAMP production while EP1 increased Ca^++i. As a first step in distinguishing the receptor isoform mediating the PGE2 signal, the second messenger in the Aβ coactivation pathway was identified.

[1] = system: primary mixed murine glial cultures; experiment: PGE2 in medium conditioned by primary mixed murine glial cultures; format: cell-based; settings: 14 μM indomethacin during 48 hour conditioning; basal just under 200 pg/ml
Description: (§1) As co-culture with astrocytes is known to promote the resting state for cultured microglia, mixed primary glial cultures are a particularly suitable system in which to examine PGE2:Aβ synergy. Briefly, cortices from P3 wild type mice were dissected in Ca^2+ and Mg^2+ free HBSS (Gibco). Meninges were carefully dissected away, and the tissue transferred to a dish containing HBSS supplemented with 0.53 mM EDTA and 0.05% trypsin. The tissue was incubated for 18 minutes at room temperature with occasional gentle agitation. Trypsin was removed and the tissue washed with HBSS twice prior to titration in growth medium consisting of high glucose DMEM supplemented with 10% fetal bovine serum (FBS), 110 mg/L sodium pyruvate, and 5 units/ml penicillin/streptomycin. The cell suspension was plated at 9 cortices in growth medium into one T75 and one T25 flask. The next day, nonadherent cells were removed. The culture was refed with growth medium at this time and once every 3 days following. When the culture appeared quite confluent, approximately one week, it was trypsinized and split into 48 well plates at 10^5 cells/well. Experiments were initiated in several days when cells again reached confluence.
This is within the range in which would allow PGE2:Aβ synergy to be observed.

primary glia = experiment: Aβ:PGE2 activation of primary glia in presence of EP2 antagonist; format: cell-based; settings: even at 10-fold higher concentration than the Kd; FIG. 7
EP1 = target: T1, EP1 (Homo sapiens, UniProt P34995); experiment: [3H]-PGE2 binding to EP1; settings: read-out: Ki for inhibition of [3H]-PGE2 binding to EP1
T1 sequence (P34995 1-402): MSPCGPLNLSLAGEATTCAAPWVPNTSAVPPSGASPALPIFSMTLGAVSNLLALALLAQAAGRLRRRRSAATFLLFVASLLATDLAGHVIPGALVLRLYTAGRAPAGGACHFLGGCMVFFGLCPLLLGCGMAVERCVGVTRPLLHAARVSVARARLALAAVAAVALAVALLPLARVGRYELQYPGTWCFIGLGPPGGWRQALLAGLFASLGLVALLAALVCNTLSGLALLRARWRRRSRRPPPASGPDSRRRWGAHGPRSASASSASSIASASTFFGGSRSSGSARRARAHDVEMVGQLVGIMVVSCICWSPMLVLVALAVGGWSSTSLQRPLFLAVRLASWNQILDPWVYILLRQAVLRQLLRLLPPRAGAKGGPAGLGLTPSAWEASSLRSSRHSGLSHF
Description: (§2) An EP1/2 selective antagonist AH6809 (Woodward et al., 1995) was used to block the activity of EP2.

BV-2 microglia = experiment: Aβ stimulation of BV-2 cells in presence of antagonist or antisense; format: cell-based, murine
Description: In addition, the EP2 antagonist AH6809 had no effect on Aβ stimulation of BV-2 cells (FIG. 7). Aβ treatment of BV-2 microglia has two striking morphological effects. First, cells clumped in a manner consistent with the well documented microglial chemotactic activity to Aβ. Second, the morphology of individual cells is altered such that they change from a spherical to an elongated, process bearing shape.
Since selective EP4 antagonists were unavailable, an antisense approach is used to probe involvement of EP4 in Aβ:PGE2 activation of microglia. The antisense oligonucleotides are first tested for their ability to inhibit EP4 expression by measuring their effect on PGE2 stimulation of cAMP accumulation, an EP2/EP4 mediated event. Once the activity of the antisense oligonucleotide is confirmed, the effect of the oligonucleotide on Aβ:PGE2 activation is tested in BV-2 microglial cells.
Next, BV-2 cells are pretreated with the antisense oligonucleotides for 48 hours and then, in the continued presence of the oligonucleotide, the pretreated cells are exposed to Aβ. […] The EP4 construct decreases IL-1β by 50%, a substantial effect for this method of inhibition (FIG. 8).

EP2 = EP2 (Homo sapiens, UniProt P43116); experiment: PGE2 stimulated cAMP accumulation functional assay; format: cell-based; settings: read-out: EC50 for inhibition of PGE2 induced cAMP generation
Description: as §2

EP4 = EP4 (Homo sapiens, UniProt P35408); experiment: [3H]-PGE2 binding to EP4
Description: as §2

[2] = system: mouse microglial cell line MMGT-16; experiment: Aβ:PGE2 synergy in MMGT-16 cells, cytokine secretion; format: cell-based; settings: agent alone
Description: The protocol described above in Example 2 was then used to examine the synergy between PGE2 and Aβ in the mouse microglial cell line MMGT-16.
Synergy in MMGT-16 cells was examined by measuring secretion of both TNF-α (FIG. 5) and IL-1β (FIG. 4).

[3] = system: primary cortical mixed glial cultures; experiment: Aβ:PGE2 synergy in primary cortical mixed glial cultures, cytokine levels; format: cell-based, mice; settings: agent alone; 100 pg/ml PGE2 or 11 hour aged Aβ; 48 hours; indomethacin pretreated
Description: as §1
The effect of Aβ in the presence and absence of exogenous PGE2 was investigated in these primary cortical mixed glial cultures. An Aβ peptide was resuspended at 4 mg/ml in 50% HFIP, incubated overnight at 37° C., dried in a Speed Vac, and resuspended in water at 4 mg/ml. The peptide was then “aged” at 37° C. for 11 or 24 hours and sonicated for 30 seconds on ice prior to use.
100 pg/ml of PGE2 is a low dose that is not expected to stimulate receptors for thromboxane or other prostenoids and is likely to be physiologically relevant. […] Treatments were made in duplicate. After 48 hours, media and lysates were harvested and assayed.
We confirmed the cellular source of the if biochemical signal by immunocytochemistry with an anti-mouse IL-1α monoclonal antibody (R&D Systems).

[4] = system: BV-2 murine microglial cells; experiment: Aβ activation of BV-2 cells (IL-1α); format: cell-based; settings: exogenous PGE2 co-incubation
Description: BV-2 murine microglial cells display many phenotypic properties of primary microglia (Blasi et al., 1990; Bocchini et al., 1992), including responsiveness to Aβ (Murphy et al., 1998). BV-2 cells are quasi-activated under basal culture conditions and secrete significant quantities of PGE2, and Aβ treatment alone induces IL-1α in BV-2 cells. […] This was believed to result from co-activation by endogenous PGE2.
The PGE2 concentration in the 24 hour conditioned media from a BV-2 cell culture was a typically 500-800 pg/ml, well above that used for Aβ:PGE2 stimulation. […] Aβ activation of BV-2 cells is highly reproducible, having been observed in 90% of experiments with a mean stimulation of 3.2 fold (n=21; p<0.05 vs. media control).

Chain of EP4 (P35408 whole entry): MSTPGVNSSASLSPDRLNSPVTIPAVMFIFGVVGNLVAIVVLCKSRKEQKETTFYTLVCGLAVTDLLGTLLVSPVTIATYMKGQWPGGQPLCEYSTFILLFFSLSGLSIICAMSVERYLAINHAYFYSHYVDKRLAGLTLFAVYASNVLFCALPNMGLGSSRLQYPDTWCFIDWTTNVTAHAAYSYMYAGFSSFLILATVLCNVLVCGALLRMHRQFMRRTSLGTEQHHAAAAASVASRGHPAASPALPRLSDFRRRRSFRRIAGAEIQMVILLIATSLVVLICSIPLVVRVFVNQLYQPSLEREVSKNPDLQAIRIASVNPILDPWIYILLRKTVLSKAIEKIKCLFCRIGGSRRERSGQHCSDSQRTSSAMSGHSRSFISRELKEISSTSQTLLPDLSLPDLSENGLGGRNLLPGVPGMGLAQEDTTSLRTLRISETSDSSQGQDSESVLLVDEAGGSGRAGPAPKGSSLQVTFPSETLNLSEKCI
Chain of EP2 (P43116 whole entry): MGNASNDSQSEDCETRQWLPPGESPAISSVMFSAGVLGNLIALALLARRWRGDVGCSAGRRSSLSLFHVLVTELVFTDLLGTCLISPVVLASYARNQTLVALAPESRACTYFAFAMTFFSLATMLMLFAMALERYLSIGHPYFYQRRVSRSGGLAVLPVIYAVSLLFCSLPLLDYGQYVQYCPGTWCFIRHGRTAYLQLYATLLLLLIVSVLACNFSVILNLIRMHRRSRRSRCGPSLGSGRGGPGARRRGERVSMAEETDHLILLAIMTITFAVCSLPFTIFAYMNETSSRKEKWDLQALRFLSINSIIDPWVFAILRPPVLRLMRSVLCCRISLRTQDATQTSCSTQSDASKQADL

SMILES: COc1ccc(C2CNC(=O)C2)cc1OC1CCCC1 (stereo not drawn) [rolipram]
- effect on Aβ:PGE2 stimulation of microglial cytokine production (microglia): enhance

SMILES: COc1ccc2c(c1)c(CC(=O)O)c(C)n2C(=O)c1ccc(Cl)cc1 [indomethacin]
- PGE2 secretion [1]: about 30 pg/ml

SMILES: CC(C)Oc1ccc2c(=O)c3cc(C(=O)O)ccc3oc2c1 [AH6809]
- effect on Aβ:PGE2 activation of primary glia (primary glia): no effect
- Ki (EP1): 1000 nM
- effect on morphological responses to Aβ (clumping, elongated process bearing shape) (BV-2 microglia; BV-2 microglia): no effect on either response
- effect on Aβ stimulation of BV-2 cells (BV-2 microglia; FIG. 7): no effect
- EC50 (EP2): 1000 nM
- inhibition of [3H]-PGE2 binding to EP4 (EP4): lack of AH6809 inhibition

SMILES: Nc1ncnc2c1nc(Br)n2[C@@H]1O[C@@H]2COP(=O)(O)O[C@H]2[C@H]1O [8-Br-cAMP]
- substitution for PGE2 as co-activator with Aβ (microglia): ability to substitute for PGE2 as a coactivator with Aβ

SMILES: CCCCC[C@H](O)/C=C/[C@H]1[C@H](O)CC(=O)[C@@H]1C/C=C\CCCC(=O)O [PGE2, Prostaglandin E2]
- TNF-α secretion [2]: no discernable effect
- secretion of IL-1β [2]: unaffected
- intracellular IL-1α [3]: Neither PGE2 nor 11 hour aged Aβ alone had an effect
- secreted IL-1α [3]: Neither PGE2 nor 11 hour aged Aβ alone had an effect
- secreted IL-6 [3]: Neither PGE2 nor 11 hour aged Aβ alone had an effect
- enhancement of Aβ-induced IL-1α elevation [4]: not further enhanced
